One sequence from PMC5295395, “Inhibition of PlexA1-mediated brain tumor growth and tumor-associated angiogenesis using a transmembrane domain targeting peptide” (Oncotarget, 2016) can be followed below.

The subject of one assay is NRP1-PlexA1 complex. The experiment in a line: co-immunoprecipitation of NRP1 with PlexA1 in U373MG cells. The format is cell-based, human. The settings on record: 10^−7 M peptide 1 h. How it is done: (C) Rac-1 activation assay in resting condition and after Sema3A-induced Rac-1 activation in U373 MG cells. (D) Western blot analysis of phosphorylated Akt, total Akt and tubulin in U373MG cells treated with the vehicle (LDS 72 μM), Sema3A (100 ng/ml) or Sema3A + MTP-PlexA1 (10^−7 M). The lower panel is showing the quantification of the p-Akt/Akt ratio in the different conditions. (E) MTP-PlexA1 decreases VEGFR-2 phosphorylation induced by VEGF (100 ng/ml) in HUVEC cells. […]
in 20 mM sodium acetate (pH 4.5) at a flow rate of 5 μl/ min 10–7 M of MTP-PlexA1 or Vehicle (LDS, 72 µM) during until desired surface densities, measured in response 1 h. Stimulation was done with 100ng/ml Semaphorin 3A units, were reached. […] First antibodies (Rabbit anti-phospho-the elution buffer containing detergent removed non- akt, Rabbit anti-akt, Cell Signaling #4060 and #9272 biotinylated peptides rendering the chip ready for analysis respectively) and mouse anti-tubulin α (Cell Signaling with monomeric biot-MTP-PlexA1. Blank surfaces were #2144) were incubated overnight at 4°C (+ anti-NRP1, used for background corrections. Injections of 30 µl anti-PlexA4 Abcam). […] Images of the immuno-blots cells per well in a 6-well plate and serum starved overnight. were acquired and analyzed thanks to the GENE GNOME Before protein extraction, the cells were treated either with apparatus (Syngene Bio Imaging, UK).

In another assay the test system is HUVEC cells. In words: pseudo-tube formation assay, HUVEC on matrigel. The format is cell-based, human. As to conditions: 10^−7 M, 5 h, vs vehicle; p = 0.0087. The source says: We observed PlexA1 positive blood vessels in the tissue array of GBM samples (Figure 5A). […] To address this possibility we first used a transgenic zebra-fish model tg(kdrl:eGFP) highlighting the endothelial cells. This allowed us to assess the angiogenic activities in vivo by analyzing formation of intersegmental vessels (ISVs) after morpholino-based knockdown of the target.
Figure 5 MTP-PlexA1 inhibits developmental and tumor-specific PlexA1 pro-angiogenic role (A) Microphotographs illustrating the expression of PlexA1 in vascular-like structures in human glioma tissues. (Scale bar: 40 μm). (B) Morpholino-based PlexA1 knockdown in Zebrafish tg(kdrl:eGFP) line. Representative images of control, Plexin-A1 mismatch and Pexin-A1 knockdown embryos (plxna1MO) are shown 28 hours post fertilization (28hpf). […] (E) Live-monitoring of VEGF-induced HUVEC cell migration assay using the XCelligence system (transwell assay). (F) Microphotographs illustrating the expression of PlexA1 in blood vessels of the chick chorioallontoic membrane (upper left picture). Microphotographs (middle and lower left pictures) and camera lucida drawing (middle and lower right pictures) showing representative fields of observation after 24 h incubation with VEGF (100 ng/ml, +vehicle) or VEGF + MTP-PlexA1 (10^−7 M). The number of VEGF-induced new blood vessels is shown in the graph. […]

Turning to “TLPAIVGIGGGGGLLLLVIVAVLIAYKRK [MTP-PlexA1, synthetic transmembrane peptide mimicking the TMD of PlexA1]”, in the assay with NRP1-PlexA1 complex (Sema3A 100 ng/ml 30 min), the “change of NRP1 co-immunoprecipitated with PlexA1, Sema3A-induced” value is reported as −24.6%. For the same sequence, the “reduction of NRP1 co-immunoprecipitated with PlexA1, VEGF” value in the assay with NRP1-PlexA1 complex (VEGF 100 ng/ml 10 min) was determined as 39.4%. The “change of tube-like structures (HUVEC on matrigel)” value in the assay with HUVEC cells is −68%.
